Entries after “also recorded” stand apart in the source; their conditions may differ. Like-named read-outs stand apart in the source and are kept apart here.
Columns and labels:
RS virus [1] = assay: RS virus cytopathology / syncytium formation in Hep-2 cells (Table 3); settings: for Effect on RS virus cytopathology (syncytia): added 2 hour post infection
[2] = target: plasminogen activator urokinase; settings: cited from earlier work
RS virus [3] = system: RS virus
CV-1 [4] = system: CV-1
BHK-21 [5] = system: BHK-21
MP mutant of HSV-1 = assay: Fusion of CV-1 cells by MP mutant of HSV-1; assay type: cell-based, herpes simplex type 1
Excerpt: A polykaryoctye-forming mutant (MP) of herpes simplex type 1 (HSV-1) was also employed.
(§1) This reduction of cytopathology was even more obvious in RS virus infected CV-1 cells examined at 8 days post infection. It was observed that in untreated infected cultures over 50% of the monolayer was destroyed during the multiple cycles of RS virus growth.

RS virus [6] = assay type: cell-based, A2 strain
HSV-1 = HSV-1 yield in CV-1 cells maintained with compound 7; assay type: cell-based, herpes simplex type 1; settings: 50 μM for 6 days; challenged on day 6
RS virus [7] = assay: RS yields after pretreatment of Hep-2 cells at high multiplicities of infection; assay type: cell-based, A2 strain
Excerpt: RS virus. Even at high multiplicities of infection, pretreatment of Hep-2
reduction of RS yields. The results in Table 5 also reveal that the […]

A549 [8] = system: A549
P-3 virus = assay: Multiple cycle yields of P-3 virus (Table 5); assay type: cell-based, Parainfluenza type 3; settings: 50 μM
Method: (§2) Virus yields were quantitated by calculating 50 percent end points according to the method of Reed and Muench (A simple method for estimating fifty percent end-points. Am. J. Hyg. b 27, 493-497 (1938)). Briefly, 0.05 ml of virus diluted in MEM plus 10% FCS was added to micro-titer plates. This was followed by the addition of 40,000-60,000 Hep-2 cells in a volume of 0.05 ml. Plates were incubated at 36° C. for 5-7 days. Six or eight wells were used for each dilution. Standard error analysis was done according to the method of Pizzi (Sampling variation of the fifty percent endpoint determined by the Reed-Muench (Behrens) method. Human Biol. 22, 151-180 (1950)).
(§3) For these experiments, Hep- 2 cells were infected with either RS virus or
(§4) P-3 virus at multiplicities of infection of 0.1, 0.01, or 0.001. Following
(§5) a 2 hour adsorption period, the cultures received medium with or without a
(§6) The monolayers were harvested after
(§7) multiple cycles of replication and the yields were determined in
(§8) inhibitor-free microtiter assays.

RS virus [9] = assay: Multiple cycle yields of RS virus (Table 5); assay type: cell-based, A2 strain; settings: for Multiple cycle yield of RS virus, treated: 50 μM
Method: as §2, §3, §4, §5, §6, §7, §8

P-3 = P-3 yield in CV-1 cells maintained with compound 7; assay type: cell-based, Parainfluenza type 3; settings: 50 μM for 6 days; challenged on day 6
RS virus [10] = assay: RS virus cytopathic effect in CV-1 cells; assay type: cell-based, A2 strain; settings: 50 μM; 8 days post infection; over 50% of untreated monolayer destroyed
Excerpt: as §1

BHK-21 [11] = assay: Toxicity on BHK-21 cells; settings: BHK-21 (hamster kidney); data not shown
trypsin-like enzymes = settings: relative to benzamidine; cited from earlier work
cell growth = settings: cited from earlier work
A549 [12] = assay: Toxicity on A549 cells; settings: A549 (human lung); data not shown
CV-1 [13] = assay: Toxicity on CV-1 cells; settings: CV-1 (monkey kidney); data not shown
pancreatic kallikrein = settings: cited from earlier work
[14] = 10 μM, moi 1-2, control titers 1-5 × 10^7

SMILES: N=C(N)c1ccc(OCCC(O)COc2ccc(C(=N)N)cc2)cc1 (centres unmarked) [Compound 5, 1,4-Di(4-amidinophenoxy)-2-butanol]
- Inhibition of RS virus / RS virus-induced cell fusion (general statement) (RS virus [1]): inhibitively effective against RS virus
- Effect on RS virus cytopathology (syncytia) (RS virus [1]; 0.1 μM, Hep-2): S
- Effect on RS virus cytopathology (syncytia) (RS virus [1]; 1.0 μM, Hep-2): S
- Suppression of RS virus syncytia (in words) (RS virus [1]; Hep-2): suppressed the appearance of the characteristic syncytia
- Ki [2]: 3200 nM
- Single cycle yield of RS virus (RS virus titers) (RS virus [3]; [14]): 0.5 × 10^7 TCID50/ml
- Single cycle yield of RS virus (RS virus titers) (RS virus [3]; 100 μM, moi 1-2, control titers 1-5 × 10^7): 5.0 × 10^5 TCID50/ml

SMILES: N=C(N)c1ccc2nc(Cc3nc4ccc(C(=N)N)cc4[nH]3)[nH]c2c1 [Compound 7, Bis(5-amidino-2-benzimidazolyl)methane]
- Pattern of toxicity compared with Hep-2 cells (CV-1 [4]): identical pattern of toxicity
- Pattern of toxicity compared with Hep-2 cells (BHK-21 [5]): identical pattern of toxicity
- Effect on ability of MP mutant of HSV-1 to fuse cells (MP mutant of HSV-1): no effect
- Inhibition of RS virus / RS virus-induced cell fusion (general statement) (RS virus [1]): inhibitively effective against RS virus
- Effect on RS virus cytopathology (syncytia) (RS virus [1]; 0.1 μM, Hep-2): S
- Fusion of RS virus-infected cells (morphology) (RS virus [1]; 1.0 μM, moi 1-2, 40 hrs post infection): abolition of fusion
- minimal effective concentration (RS virus [1]; HEp-2, read-out: Lowest concentration inhibiting syncytium formation): 1 µM
- Behavior of RS virus replicated in presence of inhibitor versus control (RS virus [6]; 50 μM, RSI series vs C series): did not behave differently from the control
- Effect on RS virus penetration (in words) (RS virus [6]; compound 7: 50 μM): penetration was delayed to a similar degree
- RS virus titer, TCID50 (Log 10) (RS virus [6]; titer #1: RSI + I + A, 50 μM): 4.11 TCID50 (Log 10)
- RS virus titer, TCID50 (Log 10) (RS virus [6]; titer #2: RSI + I + A (so in the source), 50 μM): 5.97 TCID50 (Log 10)
- RS virus titer, TCID50 (Log 10) (RS virus [6]; titer #3: RSI - I + A, virus grown with 50 μM, none during adsorption): 5.50 TCID50 (Log 10)
- RS virus titer, TCID50 (Log 10) (RS virus [6]; titer #4: RSI - I + A (so in the source), virus grown with 50 μM, none during adsorption): 5.97 TCID50 (Log 10)
- RS virus titer, TCID50 (Log 10) (RS virus [6]; titer #5: C + I + A, untreated control #7 (C - I + A) 6.73): 5.59 TCID50 (Log 10)
- RS virus titer, TCID50 (Log 10) (RS virus [6]; titer #6: C + I - A, untreated control #8 (C - I + A as printed) 6.97): 6.92 TCID50 (Log 10)
- HSV-1 yield after prolonged exposure of CV-1 cells (HSV-1): normal yields
- log reduction at 50 µM (RS virus [7]): 1 to 2
- Single cycle yield of RS virus (RS virus titers) (RS virus [3]; 50 μM, moi 1-2, control titers 1-5 × 10^7): 6.3 × 10^7 TCID50/ml
- Single cycle yield of RS virus (RS virus titers) (RS virus [3]; 500 μM, moi 1-2, control titers 1-5 × 10^7): 2.0 × 10^7 TCID50/ml
- Pattern of toxicity compared with Hep-2 cells (A549 [8]): identical pattern of toxicity
- Effect on yield of P-3 virus (in words) (P-3 virus; low moi): slight, but consistent decrease
- Multiple cycle yield of P-3 virus, treated (P-3 virus; moi 0.001, harvested 72 hr post infection, control 2.0 × 10^8): 6.3 × 10^7 TCID50 /ml
- Multiple cycle yield of P-3 virus, treated (P-3 virus; moi 0.01, harvested 48 hr post infection, control 7.9 × 10^7): 4.6 × 10^7 TCID50 /ml
- Multiple cycle yield of P-3 virus, treated (P-3 virus; moi 0.1, harvested 48 hr post infection, control 3.5 × 10^8): 7.9 × 10^7 TCID50 /ml
- Multiple cycle yield of RS virus, treated (RS virus [9]; moi 0.001, harvested 120 hr post infection, control 2.8 × 10^6): 1.1 × 10^4 TCID50 /ml
- Multiple cycle yield of RS virus, treated (RS virus [9]; moi 0.01, harvested 120 hr post infection, control 3.2 × 10^7): 1.2 × 10^5 TCID50 /ml
- Multiple cycle yield of RS virus, treated (RS virus [9]; moi 0.1, harvested 72 hr post infection, control 5.0 × 10^7): 6.3 × 10^6 TCID50 /ml
- Effect on multiple cycle yields / spreading of RS virus (in words) (RS virus [9]; compound 7: 50 μM, low moi): considerably less; also recorded: greatly reduced the spreading
- P-3 yield after prolonged exposure of CV-1 cells (P-3): normal yields
- RS virus cytopathic effect in CV-1 cells (RS virus [10]): preservation of the monolayer with individual foci of infection appearing to be inhibited in their spread to uninfected areas of the culture

SMILES: N=C(N)c1ccc(OCCCCCOc2ccc(C(=N)N)cc2)cc1 [Compound 2, Pentamidine]
- Pattern of toxicity compared with Hep-2 cells (BHK-21 [11]): identical pattern of toxicity
- Effect on RS virus cytopathology (syncytia) (RS virus [1]; 0.1 μM, Hep-2): S
- Effect on RS virus cytopathology (syncytia) (RS virus [1]; 1.0 μM, Hep-2): S
- Effectiveness against trypsin-like enzymes versus benzamidine (trypsin-like enzymes): generally an order of magnitude more effective than benzamidine
- Single cycle yield of RS virus (RS virus titers) (RS virus [3]): 6.3 × 10^4 TCID50/ml
- Concentration reducing cell growth rates (cell growth): 5 to 40 µM
- Pattern of toxicity compared with Hep-2 cells (A549 [12]): identical pattern of toxicity
- Pattern of toxicity compared with Hep-2 cells (CV-1 [13]): identical pattern of toxicity

SMILES: N=C(N)c1ccc(OCc2cccc(COc3ccc(C(=N)N)cc3I)c2)c(I)c1 [Compound 6, α,α'-Bis(4-amidino-2-iodophenoxy)-m-xylene]
- Pattern of toxicity compared with Hep-2 cells (CV-1 [4]): identical pattern of toxicity
- Ki (pancreatic kallikrein): 31 nM
- Pattern of toxicity compared with Hep-2 cells (BHK-21 [5]): identical pattern of toxicity
- Cytotoxicity relative to other compounds (in words) (Hep-2 cells): as toxic as pentamidine
- Effect on RS virus cytopathology (syncytia) (RS virus [1]; 0.1 μM, Hep-2): S
- Effect on RS virus cytopathology (syncytia) (RS virus [1]; 1.0 μM, Hep-2): S
- Single cycle yield of RS virus (RS virus titers) (RS virus [3]; [14]): 6.3 × 10^6 TCID50/ml
- Pattern of toxicity compared with Hep-2 cells (A549 [8]): identical pattern of toxicity

Reference: patent publication US4619942A, “Inhibition of Respiratory Syncytial virus-induced cell fusion by amidino compounds” (priority 1983, dated 1986)
